These results are taken from patent US11672964B2, “Bioactive components conjugated to substrates of microneedle arrays” (University of Pittsburgh—Of the Commonwealth System of …, priority 2015, dated 2023).

One data set relates to epidermal cells. To be noted: pyramidal CMC-microneedle array, 5 mg/g of CMC, arrays removed after 5 minutes, 72 hours of exposure. As for the experimental part: Cytoxan® was integrated at a concentration of 5 mg/g of CMC, enabling delivery of approximately about 140 μg per array. This is a therapeutically relevant concentration based on the area of skin targeted, yet well below levels associated with systemic toxicities. Living human skin organ cultures were used to assess the cytotoxicty of Cytoxan®. Cytoxan® was delivered by application of arrays to skin explants as we previously described. Arrays and residual material were removed 5 minutes after application, and after 72 hours of exposure, culture living skin explants were cryo-sectioned and fixed. Apoptosis was evaluated using green fluorescent TUNEL assay (In Situ Cell Death Detection Kit, TMR […], Roche, cat #:11-684-795-910).

For a further data set, the system named is B16 melanoma. The data set is described as follows: Treatment of established B16 skin tumors with MNAs. As to conditions: MNAs once weekly for three weeks; for survival: combination: long term survival through day 70.
For a further data set, the system named is human skin. Kind of data set: Apoptosis in human skin at the chosen MNA doxorubicin dose. As to conditions: MNA dose chosen for the tumor study.

Method for B16 melanoma: B16 skin tumors were established in normal mice by injection. Visible established cutaneous tumors were treated once weekly for three weeks with MNAs containing either doxorubicin alone, Poly(I:C) alone, or doxorubicin and Poly(I:C) incorporated into the same MNA. […] Tumor growth and survival were measured regularly for the duration of the study.

Regarding `O=P1(N(CCCl)CCCl)NCCCO1` (stereo not drawn) [Cytoxan®, cyclophosphamide], the “apoptosis (TUNEL)” value in the data set with epidermal cells is on record as “extensive apoptosis of epidermal cells”.

Regarding Poly(I:C), in the data set on B16 melanoma, the tumor growth result is “slowed tumor growth” and the survival came out at 50%.

For the compound `COc1cccc2c1C(=O)c1c(O)c3c(c(O)c1C2=O)C[C@@](O)(C(=O)CO)C[C@@H]3O[C@H]1C[C@H](N)[C@H](O)[C@H](C)O1` [doxorubicin], the “apoptosis and necrosis in human skin” value in the data set on human skin is listed as “induces apoptosis in human skin without causing necrosis”. Moreover, in the data set with B16 melanoma, the tumor growth entry is “slowed tumor growth” and the survival is listed as 30%.
